SMILES strings stand for the structures. pIC50: −log10 of the molar value. “And” between values parts separate entries of the source, which are not always exact repeats. Identical values can stand only once.

The pIC50 is the negative decadic logarithm of the IC50, by convention in mol/L.

One assay concerns the target T1, HER-2 (Homo sapiens, UniProt P04626).
T1 construct: His6 with thrombin site (N); purchased Proqinase (Freiburg, Germany)
As to the kind of experiment: HER-2 Kinase Assay. The assay is classed as biochemical. The note with it: value in parentheses. In a few lines: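 Read-out was scintillation counting of 33P incorporated into biotinylated polyGluTyr captured on streptavidin plates. Reactions ran 1 h at 30 °C with GST-fused HER-2 residues 679–1255, 1 μM ATP, Mn2+ and Mg2+ at pH 7.5; data given as percent inhibition at 1 μM, with IC50 where determined.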

In a further assay the test system is BT474 cells. The experiment in a line: In Vivo Models - Inhibition of Tumor Growth, BT474. The note with it: 100 mg/kg, oral daily for 30 days, athymic mice. As for the experimental part:
(§1) In Vivo Models—Inhibition of Tumor Growth
(§2) The ability of test compounds to inhibit unregulated growth of human tumor cells in vivo was evaluated by implanting human tumor cells into the hindflank of athymic mice, administering a test compound and then quantifying any change in tumor size.
(§3) Human epidermoid A431 carcinoma, N87 cells and BT474 cells were implanted subcutaneously into the hindflank of female athymic mice (Charles River) and allowed to grow for 6-10 days. After a measurable tumor was established (as determined by baseline caliper measurement), the animal was administered an oral dose of the test compound daily for a period of 30 days. Tumor size was measured every five days and the degree of inhibition was determined by comparing drug-treated animals to vehicle-treated animals.
(§4) Variations of this method are intended to include intraperitoneal injection or intravenous infusion as the route of administration and administration of the test compound either alone or in a combination therapy.
(§5) The inhibition of tumor growth values are shown in Table 8 at various test concentrations, as indicated. For compounds with multiple values at one test concentration, each value represents a separate assay result.

The next assay concerns N87 cells. The experiment in a line: In Vivo Models - Inhibition of Tumor Growth, N87. The note with it: Mus musculus, po, 720 h, oral daily for 30 days, athymic mice, read-out: percent inhibition N87. The procedure:
as §1, §2, §3, §4, §5

Another assay deals with T2, EGFR (Homo sapiens, UniProt P00533).
T2 construct: The intracellular portion of EGFR started at nucleotide 2189 (corresponding to amino acid 667) and ended at the termination codon; made in house; host or cells: Sf9 insect cells (baculovirus)
The experiment in a line: EGFR Kinase Assay. The assay is classed as biochemical. The note with it: GST-EGFR, ATP 5 μM. An outline of the steps: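 Potency came from triplicate 16-point half-log titrations starting at 200 uM, with IC50 fitted from % inhibition against log concentration, or % inhibition at 2 μM otherwise. Reaction: Sf9-made GST–EGFR cytoplasmic region (aa 667 onward), biotin-polyGluTyr, 5 μM ATP with 33P tracer, pH 8.0 Tris/Mg/vanadate/DTT, 30 °C for 1 h; captured on streptavidin Flashplates and counted.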

The test system of assay [1] is Human epidermoid A431 carcinoma. The experiment in a line: In Vivo Models - Inhibition of Tumor Growth, A431. The following applies: oral daily for 30 days, athymic mice. The procedure:
as §1, §2, §3, §4, §5

T1 sequence (P04626 679-1255): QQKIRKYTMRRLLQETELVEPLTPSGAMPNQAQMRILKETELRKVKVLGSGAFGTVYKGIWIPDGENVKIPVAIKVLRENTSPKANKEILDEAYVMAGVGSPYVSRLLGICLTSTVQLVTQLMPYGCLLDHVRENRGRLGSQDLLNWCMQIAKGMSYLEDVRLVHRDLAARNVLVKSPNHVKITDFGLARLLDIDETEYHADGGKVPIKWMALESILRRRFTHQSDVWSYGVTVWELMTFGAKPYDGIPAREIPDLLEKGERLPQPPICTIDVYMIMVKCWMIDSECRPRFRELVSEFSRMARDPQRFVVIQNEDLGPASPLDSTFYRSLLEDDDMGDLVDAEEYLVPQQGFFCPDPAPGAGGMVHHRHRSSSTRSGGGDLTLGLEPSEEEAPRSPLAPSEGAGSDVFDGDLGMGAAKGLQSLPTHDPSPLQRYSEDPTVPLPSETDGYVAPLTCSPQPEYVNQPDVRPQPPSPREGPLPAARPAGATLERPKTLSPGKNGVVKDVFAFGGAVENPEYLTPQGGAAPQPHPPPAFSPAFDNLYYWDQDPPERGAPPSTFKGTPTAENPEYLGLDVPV
T2 sequence (P00533 669-1210 limits assumed): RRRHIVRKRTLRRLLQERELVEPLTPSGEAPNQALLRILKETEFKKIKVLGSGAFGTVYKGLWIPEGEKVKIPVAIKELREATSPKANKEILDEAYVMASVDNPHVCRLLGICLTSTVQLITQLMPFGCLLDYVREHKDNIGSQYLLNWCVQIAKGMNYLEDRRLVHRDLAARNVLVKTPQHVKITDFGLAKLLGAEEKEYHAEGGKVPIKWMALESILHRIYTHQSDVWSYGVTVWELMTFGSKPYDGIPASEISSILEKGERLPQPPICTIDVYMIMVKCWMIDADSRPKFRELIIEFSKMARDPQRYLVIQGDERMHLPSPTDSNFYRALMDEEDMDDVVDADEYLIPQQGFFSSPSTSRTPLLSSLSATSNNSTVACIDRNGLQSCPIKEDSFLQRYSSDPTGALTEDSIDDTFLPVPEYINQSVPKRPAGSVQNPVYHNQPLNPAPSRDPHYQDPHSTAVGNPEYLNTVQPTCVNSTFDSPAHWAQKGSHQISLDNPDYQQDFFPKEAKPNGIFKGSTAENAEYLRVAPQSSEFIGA

As to `COC1CCN(Cc2ccc(NC(=O)c3sc4ncnc5c4c3NC(=O)N5c3ccc(Oc4ccccc4)cc3)cc2)CC1` [Cpd 261, 4-oxo-5-(4-phenoxy-phenyl)-4,5-dihydro-3H-1-thia-3,5,6,8-tetraaza-acenaphthylene-2-carboxylic acid [4-(4-methoxy-piperidin-1-ylmethyl)-phenyl]-amide], the negative-log IC50 (pIC50) at HER-2 was 7.96; at EGFR, 7.74. Besides, in the assay on BT474 cells, the “percent inhibition BT474” value was determined as 98%. The inhibition in vivo at 25 mg/kg in the assay on N87 cells (25 mg/kg) worked out at 69.6%. Moreover, the inhibition in vivo at 50 mg/kg in the assay on N87 cells (50 mg/kg) is 71%. Moreover, in the assay with N87 cells (100 mg/kg), the inhibition in vivo at 100 mg/kg was 75.4%. In addition, the “percent inhibition A431” value in assay [1] (10 mg/kg) was 44%; in assay [1] (30 mg/kg) it was 54.1%; in assay [1] (100 mg/kg) it was 86.1% and 80.1%.

For the origin of these results see US7579356B2, “Thia-tetraazaacenaphthylene kinase inhibitors” (Janssen Pharmaceutica NV, priority 2005, dated 2009).
